Experiment [1] is described as follows: Effect on PI3K/AKT/mTOR pathway in PTEN deficient human MDA468 cells assessed as inhibition of S6 phosphorylation after 16 hrs by Western blot. The class given is cell-based. As to conditions: MDA-MB-468. For orientation: In western blotting, separated proteins are transferred to a membrane and probed.
The next experiment relates to MDA-MB-435. As to the kind of experiment: Growth inhibition of human MDA435 overexpressing PTEN after 3 days by MTS assay. The conditions noted are these: MDA-MB-435, 72 h. The class given is functional. In general terms: Tetrazolium assays rely on reduction of a dye to a coloured formazan, in cell work by metabolically active cells.
Experiment [2] in a line: Effect on PI3K/AKT/mTOR pathway in PTEN deficient human MDA468 cells assessed as increase in p27Kip1 level at 0.01 to 0.1 ug/mL after 16 hrs by Western blot. The class given is cell-based. As to conditions: MDA-MB-468.
Experiment [3] can be described thus: Effect on PI3K/AKT/mTOR pathway in PTEN deficient human MDA468 cells assessed as inhibition of cyclin D3 level at 0.01 to 0.1 ug/mL after 16 hrs by Western blot. It is filed as cell-based. The conditions noted are these: MDA-MB-468.
Experiment [4] is described as follows: Growth inhibition of PTEN deficient human MDA468 cells after 3 days by MTS assay. As to conditions: MDA-MB-468, 72 h. It is filed as functional, cell-based.
Experiment [5] can be described thus: Effect on PI3K/AKT/mTOR pathway in PTEN deficient human MDA468 cells assessed as inhibition of 4EBP1 phosphorylation after 16 hrs by Western blot. It is filed as cell-based. As to conditions: MDA-MB-468.
Experiment [6] in a line: Effect on PI3K/AKT/mTOR pathway in PTEN deficient human MDA468 cells assessed as phosphorylated AKT level at 0.01 to 0.1 ug/mL after 16 hrs by Western blot. The class given is cell-based. As to conditions: MDA-MB-468.
Experiment [7] in a line: Effect on PI3K/AKT/mTOR pathway in PTEN deficient human MDA468 cells assessed as inhibition of S6K phosphorylation after 16 hrs by Western blot. It is filed as cell-based. As to conditions: MDA-MB-468.

These results are taken from ChEMBL document CHEMBL1157940, “Culicinin D, an antitumor peptaibol produced by the fungus Culicinomyces clavisporus, strain LL-12I252” (J Nat Prod, 2006).

≈ marks a conversion by molar mass, not a printed value. Calls of active or inactive are those of the source. The rule behind the calls is not given here. Numbered stars: 1 amine (or outer) side, 2 acyl side, 3 side chain; on linkers, the order of the positions; unused ones are H or OH. Square brackets hold non-standard residues; d marks the D form. Peptide text beside a SMILES is read from it. * marks the point of attachment. X1 = CCC(=O)CC(O)CC(C)C[C@H](N[*:1])C(=O)[*:2]; X2 = CCCCCCC(C)C[C@@H](N[*:1])C(=O)[*:2]; Aib = CC(C)(N)C(=O)O; Butyryl = CCCC(=O)*; X3 = CC(CNCCO)N*; βAla = NCCC(=O)O

For orientation: IC50 means the concentration at which inhibition is half-maximal. A higher IC50 goes with weaker potency. In the case of `CCCCCCC(C)C[C@@H](NC(=O)C(C)(C)NC(=O)C(C)(C)NC(=O)[C@H](CC(C)CC(O)CC(=O)CC)NC(=O)[C@@H]1CCCN1C(=O)CCC)C(=O)N[C@@H](CC(C)C)C(=O)NC(C)(C)C(=O)N[C@@H](CC(C)C)C(=O)NCCC(=O)NC(C)CNCCO` (stereo partly drawn) [CULICININ D] (Butyryl-P[X1][Aib][Aib][X2]L[Aib]L[βAla]-X3), the Activity result in experiment [1], in experiment [5] and in experiment [7] was “Dose-dependent effect” in each case. The results for the IC50 (in the experiment on MDA-MB-435; in experiment [4]) were 1.6 µg/mL (≈ 1.3 µM) and under 0.007 µg/mL, respectively. The outcome in experiment [2] and in experiment [3] was Active. Further, the result in experiment [6] was inactive.
